Source: ChEMBL document CHEMBL4431373, “Investigation of Proposed Activity of Clarithromycin at GABAA Receptors Using [(11)C]Flumazenil PET” (ACS Med Chem Lett, 2016)
The source made the active and inactive calls. No cut-off for these calls is given here.

Assays:
Rhesus monkey [1] = experiment: In vivo displacement of [11C]FMZ from rhesus monkey GABA-A receptor at 0.5 mg/kg, iv after 50 to 90 mins by PET analysis; format: functional, organism-based; conditions: Macaca mulatta
[2] = target: T1, GABA-A receptor; anion channel (Homo sapiens) (UniProt P14867+P47870+P18507+P28472+P48169+Q99928+Q9UN88+P34903+O00591+O14764+Q8N1C3+P18505+P78334+P47869+P31644+Q16445); experiment: Negative allosteric modulation of GABA-A receptor (unknown origin) at 300 uM by whole cell patch clamp assay
Rhesus monkey [3] = experiment: In vivo displacement of [11C]FMZ from rhesus monkey GABA-A receptor assessed late distribution volume ratio to early distribution volume ratio of […] at 7 mg/kg, iv by Logan plot analysis (reference value: 115 to 121 %); format: functional, Macaca mulatta
Rhesus monkey [4] = experiment: In vivo displacement of [11C]FMZ from rhesus monkey GABA-A receptor at 7 mg/kg, iv after 50 to 90 mins by PET analysis; format: functional, organism-based; conditions: Macaca mulatta
[5] = target: T1, GABA-A receptor; anion channel (Homo sapiens); experiment: Negative allosteric modulation of GABA-A receptor (unknown origin) at 3 uM by whole cell patch clamp assay
[6] = target: GABA-A receptor; anion channel; experiment: Displacement of [3H]FMZ from GABA-A receptor in rat brain after 30 mins by autoradiography; format: tissue-based
[7] = target: GABA-A receptor; anion channel (Rattus norvegicus) (UniProt O09028+P15431+P18506+P18508+P19969+P20236+P23574+P23576+P28471+P28473+P30191+P62813+P63079+P63138+Q91ZM7+Q9ES14); conditions: Brain, 10 uM
Description: Displacement of [3H]FMZ from GABA-A receptor in rat brain at 10 uM preincubated for 30 mins followed by FMZ addition measured up to 16 mins

Rhesus monkey [8] = experiment: In vivo displacement of [11C]FMZ from rhesus monkey GABA-A receptor assessed as late distribution volume ratio to early distribution volume ratio of […] at 3.5 mg/kg, iv by Logan plot analysis (reference value: 115 to 121 %); format: functional, Macaca mulatta
Rhesus monkey [9] = experiment: In vivo displacement of [11C]FMZ from rhesus monkey GABA-A receptor at 3.5 mg/kg, iv after 50 to 90 mins by PET analysis; format: functional, organism-based; conditions: Macaca mulatta

Structure (SMILES) | Activity (Rhesus monkey [1]) | inhibition [2] [%] | Activity (Rhesus monkey [3]) | inhibition (Rhesus monkey [4]) | inhibition [5] [%] | Ki [6] [µM] | inhibition [7] | Activity (Rhesus monkey [8]) | inhibition (Rhesus monkey [9])
CCOC(=O)c1ncn2c1CN(C)C(=O)c1cc(F)ccc1-2 | Active |  |  |  |  |  |  |  | 
CC[C@H]1OC(=O)[C@H](C)[C@@H](O[C@H]2C[C@@](C)(OC)[C@@H](O)[C@H](C)O2)[C@H](C)[C@@H](O[C@@H]2O[C@H](C)C[C@H](N(C)C)[C@H]2O)[C@](C)(OC)C[C@@H](C)C(=O)[C@H](C)[C@@H](O)[C@]1(C)O [CLARITHROMYCIN] |  | 45 | 89 - 186% | inactive | 18 | > 10 | inactive | 108 - 131% | inactive
